These results are taken from patent publication US20250205178A1, “METHODS AND COMPOSITIONS FOR INHIBITING VIRAL […]” (ARIZONA BOARD OF REGENTS ON BEHALF OF THE UNIVERSITY OF …, priority 2022, published 2025).

What is called EC50 is the concentration at which the effect is half-maximal. The term IC50 denotes the concentration needed to halve the response being measured. The term CC50 denotes the concentration giving 50% cytotoxicity. Read a high CC50 as better tolerance by the cells.

Data set [1] concerns the target SARS-CoV-2 NSP16 MTase (Severe acute respiratory syndrome coronavirus 2, UniProt P0DTD1). Briefly: FL-NAH FP displacement assay, NSP16. It counts as binding. The settings on record: SAH 25 μM, 31.25 μM or 50 μM; NSP16 0.5 μM; p<0.0001.
Data set [2] has as its target ZIKV NS5 MTase (Zika virus, UniProt A0A024B7W1). The class given is binding.
Data set [3] deals with T1, SARS-CoV-2 NSP14 MTase (Severe acute respiratory syndrome coronavirus 2, UniProt P0DTD1). It counts as binding. The settings on record: for IC50: 50 nM FL-NAH, NSP14 MTase, read-out: IC50-disp, inhibition of FL-NAH binding.
The subject of data set [4] is DENV2 replicon. The settings on record: read-out: EC50-DENV2 Replic; DENV2 replicon cell line. Background: A replicon is a self-replicating genome or part of one, used to study replication in cells.
The target in data set [5] is Human RNA MTase (hRNMT) (Homo sapiens, UniProt O43148). The settings on record: read-out: IC50-disp.
Data set [6] deals with T2, DENV3 NS5 MTase (Dengue virus type 3, UniProt Q6YMS4). The settings on record: MST.
Data set [7] concerns ZIKV. Briefly: Antiviral immunofluorescence assay (IFA), ZIKV. It counts as cell-based.
The target in data set [8] is WNV N7 MTase (West Nile virus, UniProt Q9Q6P4). It counts as biochemical.
The target in data set [9] is T3, YFV MTase (Yellow fever virus, UniProt P03314). The settings on record: read-out: IC50-disp.
Data set [10] relates to SARS-CoV-2 WT strain (Washington strain). Description: Immunofluorescence assay, SARS-CoV-2 WT Washington strain. It counts as cell-based. The settings on record: Vero E6, WT Washington strain 0.01 MOI, 24 h.
Data set [11] deals with YFV N7 MTase (Yellow fever virus, UniProt P03314). The settings on record: read-out: IC50-HTRF. Background: In TR-FRET formats the signal depends on donor and acceptor labels being close together.
Data set [12] has as its target DENV3 NS5 N7 MTase (Dengue virus type 3, UniProt Q6YMS4). Description: HTRF MTase functional assay, DENV3. The class given is biochemical.
Data set [13] addresses T2, DENV3 NS5 MTase. Briefly: FL-NAH FP displacement assay, DENV3 NS5. The class given is binding.
The target in data set [14] is T4, WNV MTase (West Nile virus, UniProt Q9Q6P4). The class given is binding.
In data set [15] the test system is DENV2. Briefly: Antiviral immunofluorescence assay (IFA), DENV2. The class given is cell-based.
The target of data set [16] is SARS-CoV-2 NSP14 N7-MTase (Severe acute respiratory syndrome coronavirus 2, UniProt P0DTD1). The settings on record: read-out: IC50-HTRF, NSP14 MTase activity; GpppA dinucleotide substrate.
Data set [17] deals with ZIKV N7 MTase (Zika virus, UniProt A0A024B7W1). The class given is biochemical.
Data set [18] deals with T1, SARS-CoV-2 NSP14 MTase. The settings on record: read-out: IC50-TLC, NSP14 MTase activity.
The target in data set [19] is T5, DENV3 MTase (Dengue virus type 3, UniProt Q6YMS4). Description: TLC MTase activity assay, DENV3. It counts as biochemical.
Data set [20] has as its target T1, SARS-CoV-2 NSP14 MTase. The settings on record: read-out: IC50-MS, NSP14 MTase activity.
Data set [21] deals with human lung carcinoma A549 cells. Briefly: WST-8 cytotoxicity assay in A549 cells. It counts as cell-based. As for the experimental part:
As previously mentioned, cytotoxicity to the human lung carcinoma A549 cells was assessed using a WST-8 cell proliferation assay kit (Dojindo Molecular Technologies, Inc.).
To further characterize these candidate inhibitors, we investigated the cytotoxicity of NSC 111552 and 288387 to human A549 lung carcinoma cells, using a WST-8 cell viability kit, as we described previously.
A general note: Tetrazolium assays rely on reduction of a dye to a coloured formazan, in cell work by metabolically active cells.

Data set [22] has as its target SARS-CoV-2 NSP14 (Severe acute respiratory syndrome coronavirus 2, UniProt P0DTD1). The settings on record: read-out: NSP14 KD; MST, NSP14 40 nM.
The subject of data set [23] is SARS-CoV-2. The settings on record: read-out: Antiviral EC50; Vero cells, plaques at 72 h post-infection.
For data set [24], the system named is SARS-CoV-2 Omicron strain (BA.1.1). Description: Immunofluorescence assay, SARS-CoV-2 Omicron strain. The class given is cell-based.
Data set [25] has as its target T4, WNV MTase. It counts as binding. The settings on record: read-out: KD of FL-NAH.
Data set [26] concerns the target T5, DENV3 MTase. Briefly: FL-NAH FP binding assay, DENV3 MTase.
Data set [27] concerns the target NSP14-NSP10 complex (Severe acute respiratory syndrome coronavirus 2, UniProt P0DTD1). Description: FL-NAH FP binding assay, NSP14-NSP10 complex. Also on record: species or system SARS-CoV-2. The settings on record: 50 nM FL-NAH, read-out: binding affinity of FL-NAH. As for the experimental part: FP was calculated by measuring the parallel and perpendicular fluorescence with excitation and emission wavelengths of 485 nm and 528 nm, respectively. N=3
Using purified proteins, we investigated whether binding of FL-NAH to the NSP14 MTase could be monitored by FP. […] In addition, we investigated if FL-NAH is also bound to the NSP14/NSP10 complex. […] The results confirmed that NSP10 was not required for the NSP14 MTase function. Since NSP10 had only minimal effects on the NSP14 MTase activity, all the following experiments were performed using the NSP14 MTase alone.

The target of data set [28] is T3, YFV MTase. It counts as binding. The settings on record: read-out: KD of FL-NAH.
In data set [29] the target is ZIKV MTase (Zika virus, UniProt A0A024B7W1). It counts as binding. The settings on record: read-out: KD of FL-NAH.
Data set [30] relates to SARS-CoV-2 WA strain. Description: Checkerboard compound combination assay (plaque) in Vero-E6 cells. The class given is cell-based. As for the experimental part: The 2D compound-compound interactions were determined by checkerboard titration in a 96-well plate. Vero-E6 cells were seeded one day before combination test at 3×10^4 cells/each well. The first compound (A) was serially diluted along the x axis (columns 3 to 8); and the second compound (B) was serially diluted along the y axis (from row A to F) in the 96-well plate. The last two columns (columns 9 and 10) contained compound B-alone controls and the last two rows (row G and H) contained compound A-alone controls. After the cells grew into monolayer, the medium was discard, followed by addition of 50 μl compound mixture. Then 50 μl SARS-CoV-2 WA strain was added at MOI of 0.01.
The plate was incubated at 37° C., 5% CO2 for 1 hour. Then 100 μl overlay medium (DMEM+2% FBS+1% Methylcellulose) was added and the plate was further incubated at 37° C., 5% CO2. After 3 days, cells were fixed with 10% neutral formalin for 30 minutes, wash with water for more than 6 times and then stained with 50 μl Crystal Violet (0.5% in methanol/water) for 4 minutes. The staining solution was removed by aspiration and the plate was rinsed with water, and dried thoroughly. Plaques were counted and numbers were recorded to calculate the percentage of inhibition. SynergyFinder was used to analyze the synergistic effect of the two compounds (https://synergyfinder.fimm.fi/synergy/20230202071113839465/). Each combination testing experiment has three replicates.

“Also recorded” adds a separate entry of the source. Read-outs that look alike come from different tables or passages of the source.

T4 sequence (Q9Q6P4 2529-2794 limits assumed): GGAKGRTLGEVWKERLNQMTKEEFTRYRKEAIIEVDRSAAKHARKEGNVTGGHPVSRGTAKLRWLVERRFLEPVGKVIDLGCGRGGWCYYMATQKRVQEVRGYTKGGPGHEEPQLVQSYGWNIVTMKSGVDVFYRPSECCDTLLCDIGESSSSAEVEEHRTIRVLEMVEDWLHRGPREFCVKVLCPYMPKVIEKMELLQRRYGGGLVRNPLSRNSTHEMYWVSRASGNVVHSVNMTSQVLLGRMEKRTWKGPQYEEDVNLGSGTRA
T3 sequence (P03314 2507-2771 limits assumed): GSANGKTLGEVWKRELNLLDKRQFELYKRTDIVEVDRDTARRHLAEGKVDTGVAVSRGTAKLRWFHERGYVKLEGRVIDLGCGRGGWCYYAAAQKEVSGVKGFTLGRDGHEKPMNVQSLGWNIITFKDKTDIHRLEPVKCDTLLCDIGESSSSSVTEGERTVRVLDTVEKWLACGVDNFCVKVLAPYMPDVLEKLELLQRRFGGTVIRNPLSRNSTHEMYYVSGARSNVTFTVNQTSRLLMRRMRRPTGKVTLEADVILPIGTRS
T5 sequence (Q6YMS4 2492-2753): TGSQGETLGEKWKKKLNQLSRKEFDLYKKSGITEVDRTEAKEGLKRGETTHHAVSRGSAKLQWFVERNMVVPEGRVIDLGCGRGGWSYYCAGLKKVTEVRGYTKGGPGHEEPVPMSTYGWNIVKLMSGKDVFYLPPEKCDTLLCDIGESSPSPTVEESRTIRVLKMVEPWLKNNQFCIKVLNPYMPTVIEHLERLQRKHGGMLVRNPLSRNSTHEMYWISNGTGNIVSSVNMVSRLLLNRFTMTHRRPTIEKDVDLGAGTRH
T2 sequence (Q6YMS4 2492-2753): as above
Chain of ZIKV NS5 MTase (A0A024B7W1 2521-2785 limits assumed): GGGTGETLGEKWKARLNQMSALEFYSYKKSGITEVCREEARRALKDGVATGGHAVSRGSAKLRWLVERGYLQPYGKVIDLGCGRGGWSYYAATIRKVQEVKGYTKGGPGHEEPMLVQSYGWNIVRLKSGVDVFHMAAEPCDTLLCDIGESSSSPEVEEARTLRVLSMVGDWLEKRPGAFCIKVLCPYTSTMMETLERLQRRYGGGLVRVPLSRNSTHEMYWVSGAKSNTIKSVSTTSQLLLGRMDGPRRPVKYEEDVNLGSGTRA
Chain of WNV N7 MTase (Q9Q6P4 2529-2794 limits assumed): as the sequence (Q9Q6P4 2529-2794 limits assumed) above
Chain of YFV N7 MTase (P03314 2507-2771 limits assumed): as the sequence (P03314 2507-2771 limits assumed) above
Chain of Human RNA MTase (hRNMT) (O43148 whole entry): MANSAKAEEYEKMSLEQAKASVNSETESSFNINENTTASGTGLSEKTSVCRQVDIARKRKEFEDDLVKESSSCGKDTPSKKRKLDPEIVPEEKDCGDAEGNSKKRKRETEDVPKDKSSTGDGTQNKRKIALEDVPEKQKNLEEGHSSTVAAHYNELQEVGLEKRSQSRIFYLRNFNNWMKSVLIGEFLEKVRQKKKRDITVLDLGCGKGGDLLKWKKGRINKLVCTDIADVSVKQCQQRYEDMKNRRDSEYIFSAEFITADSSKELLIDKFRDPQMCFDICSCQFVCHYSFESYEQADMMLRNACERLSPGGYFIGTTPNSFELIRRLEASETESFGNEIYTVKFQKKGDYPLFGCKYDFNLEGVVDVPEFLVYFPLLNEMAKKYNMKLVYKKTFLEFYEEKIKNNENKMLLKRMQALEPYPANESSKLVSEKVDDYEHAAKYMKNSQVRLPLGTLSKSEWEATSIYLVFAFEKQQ
Chain of DENV3 NS5 N7 MTase (Q6YMS4 2492-2753): as the sequence (Q6YMS4 2492-2753) above
Chain of ZIKV N7 MTase (A0A024B7W1 2521-2785 limits assumed): as the sequence (A0A024B7W1 2521-2785 limits assumed) above
Chain of ZIKV MTase (A0A024B7W1 2521-2785 limits assumed): as above

In the case of `Nc1ncnc2c1ncn2[C@@H]1O[C@H](CSCC[C@H](N)C(=O)O)[C@@H](O)[C@H]1O` [SAH, S-adenosyl-L-homocysteine], the “inhibition of FL-NAH binding (FP)” value in data set [1] is reported as “inhibited; also recorded: quenched”; in [2], “inhibited; also recorded: quenched”; in data set [3] (SAH 25 μM, 31.25 μM or 50 μM, NSP14 0.5 μM, p<0.0001), “inhibited”.

For `COCCn1c2nc(=O)n(-c3ccccc3)c(=O)c-2nc2ccccc21` [NSC 288387], the EC50 in data set [4] was 11.4 µM; in data set [7], 0.69 µM; in data set [15] it was 0.53 µM; in data set [23], 5.7 µM. Moreover, the IC50 in [5] came out at 35.5 µM; in data set [8], 12.2 µM; in data set [9] it was 10 µM; in data set [11], 11.2 µM; in data set [12], 6 µM; in data set [2], 4.9 µM. The IC50 in data set [13] (DENV3, DTT (1 mM)) amounted to 3.9 µM; in data set [13] (DENV3, No DTT) it was 1.3 µM; in data set [14] it was 13 µM; in data set [16], 2.2 µM; in [17] it was 6.8 µM; in data set [18], 2.5 µM. In addition, the values for the IC50 in data set [19], in data set [20] and in data set [3] were 1.6 µM, 4.3 µM and 2.7 µM, respectively. Further, the Kd came to 3.2 µM in data set [6] and 1.5 µM in [22]. The “viral titer in IFA” value in data set [10] and in data set [24] was “dose-dependently reduced the viral titer” in each case. For the same compound, the “effect of DTT (1 mM) on potency in inhibiting FL-NAH binding” value in data set [13] (with vs without DTT) is reported as “reducing its potency by about threefold”. Further, in data set [21], it took 57 µM to reach half-maximal cytotoxicity (CC50).

As to `Nc1ncnc2c1ncn2[C@@H]1O[C@H](CN(CC[C@H](N)C(=O)O)Cc2cn(CCNC(=O)c3ccc4c(c3)C(=O)OC43c4ccc(O)cc4Oc4cc(O)ccc43)nn2)[C@@H](O)[C@H]1O` [FL-NAH, fluorescein N-adenosylhomocysteine], the Kd in data set [25] is 0.28 µM; in data set [26] it was 0.61 µM; in data set [27], 0.81 µM; in [28] it was 3 µM; in [29], 3.5 µM.

For the compound `C[S+](CC[C@H](N)C(=O)O)C[C@H]1O[C@@H](n2cnc3c(N)ncnc32)[C@H](O)[C@@H]1O` (stereo partly shown) [SAM, S-adenosylmethionine], the “inhibition of FL-NAH binding (FP)” value in data set [1] and in [2] was “quenched” throughout.

Consider `CC(C)(C)[C@H](NC(=O)C(F)(F)F)C(=O)N1C[C@H]2[C@@H]([C@H]1C(=O)N[C@H](C#N)C[C@@H]1CCNC1=O)C2(C)C` [nirmatrelvir], for which the EC50 was 0.056 µM in data set [30] (Severe acute respiratory syndrome coronavirus 2, Vero C1008, nirmatrelvir alone, read-out: EC50) and approximately 0.031 µM in [30] (Severe acute respiratory syndrome coronavirus 2, Vero C1008, nirmatrelvir in the presence of NSC111552). The EC50 shift in data set [30] (nirmatrelvir, in the presence of NSC111552) is listed as approximately 1.8 fold.

On to `CC(=O)c1cc(O)c2ccccc2c1O` [NSC 111552], for which the EC50 in data set [4] stood at 5 µM; in data set [7] it was 0.9 µM; in data set [15], 0.32 µM; in [23], 8.5 µM. Besides, the IC50 in data set [5] is 63.3 µM; in data set [8], 5.2 µM; in data set [9] it was 46 µM; in [11], 26.7 µM; in data set [12], 3.9 µM; in data set [2], 7.3 µM. In addition, the IC50 in data set [13] (DENV3, DTT (1 mM)) turned out to be 1.6 µM; in data set [13] (DENV3, No DTT), 1.1 µM; in [14], 5.7 µM; in data set [16], 2.2 µM; in data set [17], 12.9 µM; in data set [18] it was 7 µM. For the same compound, the figures for the IC50 in [19], in data set [20] and in data set [3] were 1.1 µM, 1.5 µM and 5.1 µM, respectively. The Kd in [6] was 4.6 µM; in data set [22], 2.1 µM. The results for the “maximal ZIP-score” value in data set [30] (NSC111552 in combination with nirmatrelvir) and in data set [30] (NSC111552 in combination with remdesivir) were 21 and 24, respectively. Further, the “viral titer in IFA” value in data set [10] and in data set [24] was “dose-dependently reduced the viral titer” each time. Besides, the CC50 in data set [21] is approximately 187 µM.

As to `CCC(CC)COC(=O)[C@H](C)N[P@](=O)(OC[C@H]1O[C@@](C#N)(c2ccc3c(N)ncnn23)[C@H](O)[C@@H]1O)Oc1ccccc1` [remdesivir], the EC50 in data set [30] (Severe acute respiratory syndrome coronavirus 2, Vero C1008, remdesivir alone, read-out: EC50) amounted to 0.04 µM; in data set [30] (Severe acute respiratory syndrome coronavirus 2, Vero C1008, remdesivir with NSC111552 ([…]), read-out: EC50) it was 0.017 µM. Besides, the EC50 decrease entry in data set [30] (remdesivir with NSC111552 ([…])) is listed as “about 2.4 fold”.
